Test results taken from EP0068680A1, “Antibiotics” (BEECHAM GROUP PLC, priority 1981, dated 1983).
Converted amounts (≈) assume the structure as drawn. Read-outs that look alike come from different tables or passages of the source.

How the values were obtained:
Past. multocida PA2 = experiment: MIC against Veterinary Bacteria in vitro (agar dilution)
Description: (§1) The activity of the compounds of the Examples against various veterinarily important bacteria, was assayed in vitro using two-fold serial dilutions in Diagnostic Sensitivity Test Agar inoculated with 10^4 organisms.

[1] = tested on: M. hyosynoviae ATCC 25591; experiment: MIC against Mycoplasma in vitro (agar); format: cell-based; conditions: Friis broth solidified with 0.9% agarose, 6 days at 37°C
Staph. aureus Oxford = experiment: MIC against Human Bacteria in vitro (agar dilution); format: cell-based; conditions: agar with 5% chocolated horse blood, 18 hours at 37°C
E. coli ESS = experiment: as above; format: cell-based; conditions: agar with 5% chocolated horse blood, 18 hours at 37°C
Strep. uberis SPU1 = experiment: MIC against Veterinary Bacteria in vitro (agar dilution)
Description: as §1

M. suipneumoniae MS 16 = experiment: MIC against Mycoplasma in vitro (agar); format: cell-based; conditions: Friis broth solidified with 0.9% agarose, 6 days at 37°C
[2] = tested on: Pasteurella multocida 1633; experiment: MIC against Human Bacteria in vitro (agar dilution); format: cell-based; conditions: agar with 5% chocolated horse blood, 18 hours at 37°C
[3] = tested on: Ps. aeruginosa NCTC 10662; experiment: as above; format: cell-based; conditions: 18 hours at 37°C
Strep. agalactiae SPA1 = experiment: MIC against Veterinary Bacteria in vitro (agar dilution)
Description: as §1

M. dispar NCTC 10125 = experiment: MIC against Mycoplasma in vitro (agar); format: cell-based; conditions: Friis broth solidified with 0.9% agarose, 6 days at 37°C
M. hyorhinis ATCC 23234 = experiment: MIC against Mycoplasma in vitro (agar); format: cell-based; conditions: Friis broth solidified with 0.9% agarose, 6 days at 37°C
E. coli E1 = experiment: MIC against Veterinary Bacteria in vitro (agar dilution)
Description: as §1

Strep. pyogenes B2788 = experiment: MIC against Human Bacteria in vitro (agar dilution); format: cell-based; conditions: agar with 5% chocolated horse blood, 18 hours at 37°C
[4] = tested on: M. suipneumoniae J2206/183^b; experiment: MIC against Mycoplasma in vitro (agar); format: cell-based; conditions: Friis broth solidified with 0.9% agarose, 6 days at 37°C
M. suipneumoniae TAM 6N = experiment: MIC against Mycoplasma in vitro (agar); format: cell-based; conditions: Friis broth solidified with 0.9% agarose, 6 days at 37°C
[5] = tested on: Haemophilus influenzae Q1; experiment: MIC against Human Bacteria in vitro (agar dilution); format: cell-based; conditions: agar with 5% chocolated horse blood, 18 hours at 37°C
Past. multocida PA1 = experiment: MIC against Veterinary Bacteria in vitro (agar dilution)
Description: as §1

M. suipneumoniae NB12 = experiment: MIC against Mycoplasma in vitro (agar); format: cell-based; conditions: Friis broth solidified with 0.9% agarose, 6 days at 37°C
S. dublin S7 = experiment: MIC against Veterinary Bacteria in vitro (agar dilution)
Description: as §1

M. suipneumoniae LABER = experiment: MIC against Mycoplasma in vitro (agar); format: cell-based; conditions: Friis broth solidified with 0.9% agarose, 6 days at 37°C
Strep. pneumoniae CN33 = experiment: MIC against Human Bacteria in vitro (agar dilution); format: cell-based; conditions: agar with 5% chocolated horse blood, 18 hours at 37°C
[6] = tested on: Erysipelothrix rhusiopathiae NCTC 8163; experiment: MIC against Veterinary Bacteria in vitro (agar dilution)
Description: as §1

[7] = tested on: M. suipneumoniae NCTC 10110; experiment: MIC against Mycoplasma in vitro (agar); format: cell-based; conditions: Friis broth solidified with 0.9% agarose, 6 days at 37°C
[8] = tested on: Staph. aureus B4 (pen. resistant); experiment: MIC against Veterinary Bacteria in vitro (agar dilution)
Description: as §1

[9] = tested on: M. suipneumoniae PW/C/210; experiment: MIC against Mycoplasma in vitro (agar); format: cell-based; conditions: Friis broth solidified with 0.9% agarose, 6 days at 37°C
Staph. aureus Russell = experiment: MIC against Human Bacteria in vitro (agar dilution); format: cell-based; conditions: agar with 5% chocolated horse blood, 18 hours at 37°C
M. suipneumoniae HK(2) = experiment: MIC against Mycoplasma in vitro (agar); format: cell-based; conditions: Friis broth solidified with 0.9% agarose, 6 days at 37°C
P. mirabilis 889 = experiment: MIC against Human Bacteria in vitro (agar dilution); format: cell-based; conditions: agar with 5% chocolated horse blood, 18 hours at 37°C
K. aerogenes A = experiment: as above; format: cell-based; conditions: agar with 5% chocolated horse blood, 18 hours at 37°C
[10] = tested on: Corynebacterium xerosis 9755; experiment: as above; format: cell-based; conditions: agar with 5% chocolated horse blood, 18 hours at 37°C
[11] = tested on: M. suipneumoniae ATCC 25095; experiment: MIC against Mycoplasma in vitro (agar); format: cell-based; conditions: Friis broth solidified with 0.9% agarose, 6 days at 37°C
[12] = tested on: Strep. suis (group D) SPS11; experiment: MIC against Veterinary Bacteria in vitro (agar dilution)
Description: as §1

Bord. bronchiseptica B09 = experiment: as above
Description: as §1

M. suipneumoniae UCD 1 = experiment: MIC against Mycoplasma in vitro (agar); format: cell-based; conditions: Friis broth solidified with 0.9% agarose, 6 days at 37°C
Strep. dysgalactiae SPD1 = experiment: MIC against Veterinary Bacteria in vitro (agar dilution)
Description: as §1

M. suipneumoniae Str. 11 = experiment: MIC against Mycoplasma in vitro (agar); format: cell-based; conditions: Friis broth solidified with 0.9% agarose, 6 days at 37°C
M. gallisepticum S6 = experiment: MIC against Mycoplasma in vitro (agar); format: cell-based; conditions: Friis broth solidified with 0.9% agarose, 6 days at 37°C
Bord. bronchiseptica B08 = experiment: MIC against Veterinary Bacteria in vitro (agar dilution)
Description: as §1

Bacillus subtilis 6633 = experiment: MIC against Human Bacteria in vitro (agar dilution); format: cell-based; conditions: agar with 5% chocolated horse blood, 18 hours at 37°C
S. typhimurium S18 = experiment: MIC against Veterinary Bacteria in vitro (agar dilution)
Description: as §1

Past. haemolytica PA5 = experiment: as above
Description: as §1

[13] = Staphylococcus aureus, read-out: MIC
[14] = Mesomycoplasma hyopneumoniae, 144 h, read-out: MIC

CC(=CC(=O)OCCCCC=CCCC(=O)O)CC1OCC(CC2OC2C(C)C(C)O)C(O)C1O (stereo not shown) [Example 1, pseudomonic acid D]
MIC (Past. multocida PA2; Pasteurella multocida, PA2, 18 h): < 0.019 µg/mL
MIC ([1]; 144 h, read-out: MIC): 0.5 µg/mL (≈ 1 µM)
MIC (Staph. aureus Oxford; [13]): 1 µg/mL (≈ 2.01 µM)
MIC (E. coli ESS; Escherichia coli, read-out: MIC): 1 µg/mL (≈ 2.01 µM)
MIC (Strep. uberis SPU1; Streptococcus uberis, SPU1, 18 h): 0.039 µg/mL (≈ 0.0782 µM)
MIC (M. suipneumoniae MS 16; Mesomycoplasma hyopneumoniae, MS16, 144 h, read-out: MIC): 2.5 µg/mL (≈ 5.01 µM)
MIC ([2]; read-out: MIC): 0.25 µg/mL (≈ 0.501 µM)
MIC ([3]; Pseudomonas aeruginosa, NCTC10662, agar with 5% chocolated horse blood, read-out: MIC): > 25 µg/mL
MIC (Strep. agalactiae SPA1; Streptococcus agalactiae, SPA1, 18 h): 0.625 µg/mL (≈ 1.25 µM)
MIC (M. dispar NCTC 10125; 144 h, read-out: MIC): 2.5 µg/mL (≈ 5.01 µM)
MIC (M. hyorhinis ATCC 23234; Mesomycoplasma hyorhinis, ATCC23234, 144 h, read-out: MIC): 1 µg/mL (≈ 2.01 µM)
MIC (E. coli E1; Escherichia coli, E1, 18 h): > 20 µg/mL
MIC (Strep. pyogenes B2788; Streptococcus pyogenes, read-out: MIC): 0.5 µg/mL (≈ 1 µM)
MIC [4, 14]: 2.5 µg/mL (≈ 5.01 µM)
MIC (M. suipneumoniae TAM 6N; Mesomycoplasma hyopneumoniae, TAM6N, 144 h, read-out: MIC): 5 µg/mL (≈ 10 µM)
MIC ([5]; read-out: MIC): 0.25 µg/mL (≈ 0.501 µM)
MIC (Past. multocida PA1; Pasteurella multocida, PA1, 18 h): 0.156 µg/mL (≈ 0.313 µM)
MIC (M. suipneumoniae NB12; [14]): 1 µg/mL (≈ 2.01 µM)
MIC (S. dublin S7; Salmonella enterica, S7, 18 h): > 20 µg/mL
MIC (M. suipneumoniae LABER; [14]): 2.5 µg/mL (≈ 5.01 µM)
MIC (Strep. pneumoniae CN33; Streptococcus pneumoniae, read-out: MIC): 0.25 µg/mL (≈ 0.501 µM)
MIC ([6]; Erysipelothrix rhusiopathiae, NCTC8163, 18 h): 10 µg/mL (≈ 20.1 µM)
MIC ([7]; Mesomycoplasma hyopneumoniae, NCTC10110, 144 h, read-out: MIC): 5 µg/mL (≈ 10 µM)
MIC ([8]; Staphylococcus aureus, 18 h): 0.312 µg/mL (≈ 0.626 µM)
MIC [9, 14]: 1 µg/mL (≈ 2.01 µM)
MIC (Staph. aureus Russell; [13]): 1 µg/mL (≈ 2.01 µM)
MIC (M. suipneumoniae HK(2); [14]): 5 µg/mL (≈ 10 µM)
MIC (P. mirabilis 889; Proteus mirabilis, read-out: MIC): > 25 µg/mL
MIC (K. aerogenes A; Klebsiella aerogenes, read-out: MIC): > 25 µg/mL
MIC ([10]; read-out: MIC): > 25 µg/mL
MIC ([11]; Mesomycoplasma hyopneumoniae, ATCC25095, 144 h, read-out: MIC): 1 µg/mL (≈ 2.01 µM)
MIC ([12]; Streptococcus suis, 18 h): 1.25 µg/mL (≈ 2.51 µM)
MIC (Bord. bronchiseptica B09; Bordetella bronchiseptica, B09, 18 h): 5 µg/mL (≈ 10 µM)
MIC (M. suipneumoniae UCD 1; Mesomycoplasma hyopneumoniae, UCD1, 144 h, read-out: MIC): 5 µg/mL (≈ 10 µM)
MIC (Strep. dysgalactiae SPD1; Streptococcus dysgalactiae, SPD1, 18 h): 0.156 µg/mL (≈ 0.313 µM)
MIC (M. suipneumoniae Str. 11; [14]): 1 µg/mL (≈ 2.01 µM)
MIC (M. gallisepticum S6; Mycoplasmoides gallisepticum, 144 h, read-out: MIC): > 10 µg/mL
MIC (Bord. bronchiseptica B08; Bordetella bronchiseptica, B08, 18 h): 10 µg/mL (≈ 20.1 µM)
MIC (Bacillus subtilis 6633; read-out: MIC): 1 µg/mL (≈ 2.01 µM)
MIC (S. typhimurium S18; Salmonella enterica, TYPHIMURIUM, 18 h): > 20 µg/mL
MIC (Past. haemolytica PA5; Mannheimia haemolytica, PA5, 18 h): 2.5 µg/mL (≈ 5.01 µM)

Methyl pseudomonate D [Example 2]
MIC (Past. multocida PA2; Past. multocida PA2, Diagnostic Sensitivity Test Agar, 18 hours at 37°C): 2.5 µg/mL
MIC [1]: 0.5 µg/mL
MIC (Staph. aureus Oxford): 0.5 µg/mL
MIC (E. coli ESS): 1.0 µg/mL
MIC (Strep. uberis SPU1; Strep. uberis SPU1, Diagnostic Sensitivity Test Agar, 18 hours at 37°C): 5.0 µg/mL
MIC (M. suipneumoniae MS 16): 2.5 µg/mL
MIC [2]: 0.5 µg/mL
MIC ([3]; agar with 5% chocolated horse blood): >100 µg/mL
MIC (Strep. agalactiae SPA1; Strep. agalactiae SPA1, Diagnostic Sensitivity Test Agar, 18 hours at 37°C): 0.312 µg/mL
MIC (M. dispar NCTC 10125): 1.0 µg/mL
MIC (M. hyorhinis ATCC 23234): 1.0 µg/mL
MIC (E. coli E1; E. coli E1, Diagnostic Sensitivity Test Agar, 18 hours at 37°C): 40 µg/mL
MIC (Strep. pyogenes B2788): 2.5 µg/mL
MIC [4]: 5.0 µg/mL
MIC (M. suipneumoniae TAM 6N): 10 µg/mL
MIC [5]: 0.5 µg/mL
MIC (Past. multocida PA1; Past. multocida PA1, Diagnostic Sensitivity Test Agar, 18 hours at 37°C): 10 µg/mL
MIC (M. suipneumoniae NB12): 5.0 µg/mL
MIC (S. dublin S7; S. dublin S7, Diagnostic Sensitivity Test Agar, 18 hours at 37°C): 80 µg/mL
MIC (M. suipneumoniae LABER): 2.5 µg/mL
MIC (Strep. pneumoniae CN33): 2.5 µg/mL
MIC ([6]; Erysipelothrix rhusiopathiae NCTC 8163, Diagnostic Sensitivity Test Agar, 18 hours at 37°C): 20 µg/mL
MIC [7]: 5.0 µg/mL
MIC ([8]; Staph. aureus B4 (pen. resistant), Diagnostic Sensitivity Test Agar, 18 hours at 37°C): 80 µg/mL
MIC [9]: 2.5 µg/mL
MIC (Staph. aureus Russell): 2.5 µg/mL
MIC (M. suipneumoniae HK(2)): 5.0 µg/mL
MIC (P. mirabilis 889): >100 µg/mL
MIC (K. aerogenes A): >100 µg/mL
MIC [10]: >100 µg/mL
MIC [11]: 2.5 µg/mL
MIC ([12]; Strep. suis (group D) SPS11, Diagnostic Sensitivity Test Agar, 18 hours at 37°C): 0.625 µg/mL
MIC (Bord. bronchiseptica B09; Bord. bronchiseptica B09, Diagnostic Sensitivity Test Agar, 18 hours at 37°C): 10 µg/mL
MIC (M. suipneumoniae UCD 1): 5.0 µg/mL
MIC (Strep. dysgalactiae SPD1; Strep. dysgalactiae SPD1, Diagnostic Sensitivity Test Agar, 18 hours at 37°C): 0.156 µg/mL
MIC (M. suipneumoniae Str. 11): 2.5 µg/mL
MIC (M. gallisepticum S6): >10 µg/mL
MIC (Bord. bronchiseptica B08; Bord. bronchiseptica B08, Diagnostic Sensitivity Test Agar, 18 hours at 37°C): 40 µg/mL
MIC (Bacillus subtilis 6633): 0.5 µg/mL
MIC (S. typhimurium S18; S. typhimurium S18, Diagnostic Sensitivity Test Agar, 18 hours at 37°C): 80 µg/mL
MIC (Past. haemolytica PA5; Past. haemolytica PA5, Diagnostic Sensitivity Test Agar, 18 hours at 37°C): 1.25 µg/mL
